Among the data in ChEMBL document CHEMBL5727861, “Compounds and methods for the enhanced degradation of targeted proteins” (2020) are Kd values, retold here.

For this experiment, the target named is von Hippel-Lindau disease tumor suppressor (Homo sapiens, UniProt P40337). Briefly: Compounds were transferred from the stock plate to the assay plate and diluted into running buffer containing no DMSO. All compounds were run as a six-concentration series with a final assay top concentration of 100 uM. Data analysis was performed in Scrubber 2 (BioLogic software, Campbell, Australia). Blanks were subtracted and data was corrected for DMSO using a standard DMSO curve.
Sequence of von Hippel-Lindau disease tumor suppressor (P40337 whole entry): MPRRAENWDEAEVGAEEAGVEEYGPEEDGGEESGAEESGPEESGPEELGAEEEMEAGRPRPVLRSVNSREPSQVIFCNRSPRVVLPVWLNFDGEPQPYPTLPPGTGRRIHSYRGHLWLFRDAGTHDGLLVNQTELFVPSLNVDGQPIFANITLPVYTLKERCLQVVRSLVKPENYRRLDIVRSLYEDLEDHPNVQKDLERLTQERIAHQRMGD

For orientation: Kd means the constant that tells how readily two partners part at equilibrium. Lower therefore signals tighter binding. On to `COc1cc([C@H](C(=O)N2C[C@H](O)C[C@H]2C(=O)NCc2ccc(-c3scnc3C)cc2)C(C)C)on1`, for which binding was put at a Kd of 13 µM.
